{"source": "patent US7799753B2", "about": "“Bisubstrate inhibitors of protein tyrosine kinases as therapeutic agents” (Board of Governers for Higher Education, priority 2004, dated 2010)", "key": {"Src [1]": {"target": "T1, Src (Homo sapiens, UniProt P12931)", "T1 sequence (P12931 whole entry, species assumed)": "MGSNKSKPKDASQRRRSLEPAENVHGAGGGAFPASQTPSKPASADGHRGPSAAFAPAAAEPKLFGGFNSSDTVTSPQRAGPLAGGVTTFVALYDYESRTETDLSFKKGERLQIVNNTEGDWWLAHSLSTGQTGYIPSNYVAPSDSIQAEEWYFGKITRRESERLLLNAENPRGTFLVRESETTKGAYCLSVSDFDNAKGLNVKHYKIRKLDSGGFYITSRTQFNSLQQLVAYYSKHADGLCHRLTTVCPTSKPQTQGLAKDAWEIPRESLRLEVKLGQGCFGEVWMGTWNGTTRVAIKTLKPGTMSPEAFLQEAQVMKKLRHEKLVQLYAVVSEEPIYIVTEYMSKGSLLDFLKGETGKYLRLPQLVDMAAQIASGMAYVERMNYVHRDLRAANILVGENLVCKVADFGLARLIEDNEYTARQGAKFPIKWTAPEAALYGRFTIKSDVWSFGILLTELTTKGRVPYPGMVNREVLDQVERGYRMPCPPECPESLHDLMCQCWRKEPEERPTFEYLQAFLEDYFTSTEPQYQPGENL", "test": "Radioactive kinase assay, polyE4Y phosphorylation by Src (peptides, N-heteroaromatics and conjugates)", "format": "biochemical"}, "Src [2]": {"target": "T1, Src", "test": "Steady-state kinetic radioactive assay with Src (polyE4Y, [γ-32P]ATP), ATP-phosphopeptide conjugates", "format": "biochemical", "description": "Steady-State Kinetic Assays.\nArtificial substrate polyE4Y (average MW: 35 kD) was used for routine kinase activity. The kinase activity of PTKs was first determined using a standard radiometric PTK activity assay. This assay contains polyE4Y as the phosphate accepting substrate, [γ-^32P]-ATP, and MgCl2. After a reaction time of 30 min at 30° C., 35 μl of the reaction mixture was removed and spotted onto a filter paper and placed into warm 5% trichloroacetic acid (TCA). The TCA stops the kinase reaction, precipitates the proteins and polyE4Y onto the filter paper, and washes the un-reacted ATP and others away. After 3 TCA washes for 10 min each, the radioactivity remaining on the filter paper was determined by liquid scintillation counting. The assays were done in duplicates and repeated at least three times. Control reactions lacking polyE4Y were included for each enzyme concentration to correct for any non-polyE4Y specific phosphorylation. […] The inhibitory mechanism was determined based on the effect of the compound on the Km and Vm values Inhibitory constant (Ki) was determined by using Sigma Plot 8.0 Enzyme Kinetics Module."}, "[3]": {"details": "read-out: IC50, inhibition of polyE4Y phosphorylation by Src"}}, "note": "Numbered stars: 1 amine (or outer) side, 2 acyl side, 3 side chain; on linkers, the order of the positions; unused ones are H or OH. Square brackets hold non-standard residues; d marks the D form. Peptide text beside a SMILES is read from it. * marks the point of attachment. X2 = CS(=O)(=O)Nc1ccc(C[C@H](N[*:1])C(=O)[*:2])cc1; Phe(4-NH2) = Nc1ccc(C[C@H](N)C(=O)O)cc1; X1 = Nc1ncnc2c1c(-c1ccccc1)nn2CC(=O)*"}
{"compound": "CC[C@H](C)[C@H](NC(=O)[C@@H](N)Cc1ccc(O)cc1)C(=O)N[C@@H](Cc1ccc(O)cc1)C(=O)NCC(=O)N[C@@H](CO)C(=O)N[C@@H](Cc1ccccc1)C(=O)N[C@@H](CCCCN)C(=O)O", "note": "[Compound 85, YIYGSFK] (H-YIYGSFK-OH)", "values": [{"measurement": "IC50", "setting": "Src [1]; modified peptide analogs, read-out: IC50 (μM), Src kinase inhibitory potency (Table 1)", "result": "> 100", "unit": "µM"}]}
{"compound": "CC[C@H](C)[C@H](NC(=O)[C@H](Cc1ccc(O)cc1)NC(C)=O)C(=O)N[C@@H](Cc1ccc(O)cc1)C(=O)NCC(=O)N[C@@H](CO)C(=O)N[C@@H](Cc1ccccc1)C(=O)N[C@@H](CCCCN)C(=O)O", "note": "[Compound 41, Ac-YIYGSFK, reference compound] (Ac-YIYGSFK-OH; C-terminus assumed)", "values": [{"measurement": "IC50", "setting": "Src [1]; [3]", "result": 570, "unit": "µM"}]}
{"compound": "CC[C@H](C)[C@H](NC(=O)[C@H](Cc1ccc(O)cc1)NC(=O)Cn1nc(-c2ccccc2)c2c(N)ncnc21)C(=O)N[C@@H](Cc1ccc(O)cc1)C(=O)NCC(=O)N[C@@H](CO)C(=O)N[C@@H](Cc1ccccc1)C(=O)N[C@@H](CCCCN)C(=O)O", "note": "[Compound 43] (X1-YIYGSFK-OH)", "values": [{"measurement": "IC50", "setting": "Src [1]; [3]", "result": 2.7, "unit": "µM"}]}
{"compound": "CC[C@H](C)[C@H](NC(=O)[C@H](CS)NC(C)=O)C(=O)N[C@@H](Cc1ccc(O)cc1)C(=O)N[C@@H](CCCCN)C(=O)N[C@@H](Cc1ccc(O)cc1)C(=O)N[C@@H](Cc1ccc(N)cc1)C(=O)O", "note": "[Compound 68, Ac-CIYKYF(NH2)] (Ac-CIYKY[Phe(4-NH2)]-OH)", "values": [{"measurement": "Src inhibitory potency in words", "setting": "Src [1]; qualitative, relative to parent or comparator named in the text", "result": "not active"}]}
{"compound": "CC[C@H](C)[C@H](NC(=O)[C@H](CCC(=O)O)NC(=O)[C@H](CCC(=O)O)NC(=O)[C@H](Cc1ccc(OP(=O)(O)O)cc1)NC(=O)CCC(=O)NCCCOCCOCCOCCCN)C(=O)O", "note": "[Compound 16, H2N-1,13-Trioxa-Suc-pTyr-Glu-Glu-Ile-OH]", "values": [{"measurement": "Ki", "setting": "Src [2]", "result": 608, "unit": "µM"}]}
{"compound": "CC[C@H](C)[C@H](NC(=O)[C@H](CCC(=O)O)NC(=O)[C@H](CCC(=O)O)NC(=O)[C@H](Cc1ccc(OP(=O)(O)O)cc1)NC(=O)CCC(=O)NCCCOCCOCCOCCCNS(=O)(=O)c1ccc(C(=O)OC[C@H]2O[C@@H](n3cnc4c(N)ncnc43)[C@H](O)[C@@H]2O)cc1)C(=O)O", "note": "[Compound 9, 4-(sulfamoyl)benzoyladenosine-pYEEI]", "values": [{"measurement": "IC50", "setting": "Src [2]", "result": "> 300", "unit": "µM"}, {"measurement": "enhancement of catalytic activity and phosphorylation", "setting": "Src [2]; Src", "result": "at least 40%"}]}
{"compound": "CC[C@H](C)[C@H](NC(=O)[C@H](CS)NC(C)=O)C(=O)N[C@@H](Cc1ccc(O)cc1)C(=O)N[C@@H](CCCCN)C(=O)N[C@@H](Cc1ccc(NS(C)(=O)=O)cc1)C(=O)N[C@@H](Cc1ccc(O)cc1)C(=O)O", "note": "[Compound 80, Ac-CIYKF(4-NHSO2CH3)Y] (Ac-CIYK[X2]Y-OH)", "values": [{"measurement": "IC50", "setting": "Src [1]", "result": "> 100", "unit": "µM"}]}
